ChEMBL document CHEMBL5625167, “In vitro bioevaluation and docking study of dihydrosphingosine and ethambutol analogues against sensitive and multi-drug resistant Mycobacterium tuberculosis” (Eur J Med Chem, 2023)
Converted amounts (≈) assume the structure as drawn.

How the values were obtained:
Klebsiella pneumoniae = assay: Antibacterial activity against Klebsiella pneumoniae ATCC 13883 incubated for 18 hrs by resazurin dye based broth microdilution method; format: functional
[1] = system: Mycobacterium tuberculosis; assay: (§1) Antimycobacterial activity against isoniazid, rifampicin, ethambutol and pyrazinamide sensitive Mycobacterium tuberculosis H37Rv ATCC 25618 assessed as inhibition of bacterial growth incubated for 7 days by resazurin dye based colorimetric method analysis; format: functional; conditions: H37Rv ATCC 25618, 168 h, time 7 day
[2] = Cytotoxicity against mouse J774.A1 cells assessed as reduction in cell population incubated for 48 hrs by MTT assay; format: toxicity, cell-based
[3] = system: Mycobacterium tuberculosis; assay: as §1, with “Potency index, ratio of ethambutol MIC to test compound MIC for antimycobacterial” for “Antimycobacterial”; format: functional; conditions: time 7 day
[4] = Cytotoxicity against African green monkey Vero cells assessed as reduction in cell population incubated for 48 hrs by MTT assay; format: toxicity, cell-based; conditions: chlorocebus sabaeus
[5] = system: Mycolicibacterium smegmatis; assay: Antimycobacterial activity against Mycobacterium smegmatis ATCC607 incubated for 24 hrs by resazurin dye based broth microdilution method; format: functional
Staphylococcus aureus = assay: Antibacterial activity against Staphylococcus aureus ATCC 25923 incubated for 18 hrs by resazurin dye based broth microdilution method; format: functional
[6] = Cytotoxicity against human HepG2 cells assessed as reduction in cell population incubated for 48 hrs by MTT assay; format: toxicity, cell-based

Work on `CC(C)(O/N=C(\C(=O)N[C@@H]1C(=O)N2C(C(=O)[O-])=C(C[n+]3ccccc3)CS[C@H]12)c1csc(N)n1)C(=O)O` [CEFTAZIDIME] yielded an MIC (Klebsiella pneumoniae) of 0.5 µM (≈ 0.273 µg/mL).
With `CCCCCCCCCCCCCCCCCC(CO)N(CC)CC` (configuration not stated) the MIC [1] was over 64 µM, the CC50 at 48 h [2] was 49.5 µM and the Ratio [3] was under 5.6. It also gave a CC50 at 48 h [4] of 85.5 µM, an MIC [5] of over 512 µM and an MIC (Staphylococcus aureus) of over 512 µM. For the same compound, the MIC (Klebsiella pneumoniae) was over 512 µM.
In the case of `CCCCCCCCCCCCCCCC(CO)NCC` (configuration not stated), the MIC [1] is reported as 16 µM (≈ 4.79 µg/mL), the CC50 at 48 h [2] is reported as 22.8 µM and the Ratio [3] is reported as 23. It also gave a CC50 at 48 h [4] of 27.7 µM.
`CCCCCCCCCCCCCCCCCCCC(CNCC)NC(=O)OC(C)(C)C` (configuration not stated) showed an MIC [1] of 4 µM (≈ 1.82 µg/mL), a CC50 at 48 h [2] of 4.7 µM and a Ratio [3] of 90. The CC50 at 48 h [6] was 158 µM, the CC50 at 48 h [4] was 33.7 µM and the MIC [5] was 16 µM (≈ 7.28 µg/mL). It also gave an MIC (Staphylococcus aureus) of 256 µM (≈ 116 µg/mL) and an MIC (Klebsiella pneumoniae) of over 512 µM.
`CCCCCCCCCCCCCCCC(CN)NC(=O)OC(C)(C)C` (configuration not stated) gave an MIC [1] of 17.6 µM (≈ 6.52 µg/mL), a CC50 at 48 h [2] of 5.18 µM and a Ratio [3] of 20. For the same compound, the CC50 at 48 h [4] was 21.9 µM.
With `CCCCCCCCCCCCCCCCCCCC(CN)NC(=O)OC(C)(C)C` (configuration not stated) the MIC [1] was 32 µM (≈ 13.7 µg/mL), the CC50 at 48 h [2] was 36 µM and the Ratio [3] was 11. For the same compound, the CC50 at 48 h [4] was 51.4 µM.
Compound `CCCCCCCCCCCCCCCC(COCc1ccccc1)NCC` (configuration not stated) has an MIC [1] of 16 µM (≈ 6.23 µg/mL), a CC50 at 48 h [2] of 21.6 µM and a Ratio [3] of 23. The CC50 at 48 h [6] was 237 µM, the CC50 at 48 h [4] was 26 µM and the MIC [5] was 32 µM (≈ 12.5 µg/mL). The MIC (Staphylococcus aureus) was 16 µM (≈ 6.23 µg/mL) and the MIC (Klebsiella pneumoniae) was over 512 µM.
Compound `CCCCCCCCCCCCCCCC(COCc1ccccc1)NCCCCCC` (configuration not stated) has an MIC [1] of 64 µM (≈ 28.5 µg/mL), a CC50 at 48 h [2] of 54.6 µM and a Ratio [3] of 6. The CC50 at 48 h [4] was 54 µM.
With `CCCCCCCCCCCCCCCC(CO)NCCCC` (configuration not stated) the MIC [1] was 64 µM (≈ 21 µg/mL), the CC50 at 48 h [2] was 23.7 µM and the Ratio [3] was 6. For the same compound, the CC50 at 48 h [4] was 73.4 µM.
Work on `CCCCCCCCCCCCCCCC(CN=[N+]=[N-])NC(=O)OC(C)(C)C` (configuration not stated) yielded an MIC [1] of over 64 µM, a CC50 at 48 h [2] of 104 µM and a Ratio [3] of under 5.6. For the same compound, the CC50 at 48 h [4] was 63.8 µM, the MIC [5] was over 512 µM and the MIC (Staphylococcus aureus) was over 512 µM. The MIC (Klebsiella pneumoniae) was over 512 µM.
In the case of `CCCCc1ccc(CCCCCCCC(N)CO)cc1` (configuration not stated), the MIC [1] is reported as 4 µM (≈ 1.17 µg/mL), the CC50 at 48 h [2] is reported as 10.6 µM and the Ratio [3] is reported as 90. It also gave a CC50 at 48 h [6] of 25.4 µM and a CC50 at 48 h [4] of 21.2 µM.
For `CCCCCCCCCCCCCCCCCC(COCc1ccccc1)NCCCCCC` (configuration not stated), the MIC [1] was 64 µM (≈ 30.3 µg/mL), the CC50 at 48 h [2] was 118 µM and the Ratio [3] was 6. It also gave a CC50 at 48 h [4] of 120 µM, an MIC [5] of over 512 µM and an MIC (Staphylococcus aureus) of over 512 µM. For the same compound, the MIC (Klebsiella pneumoniae) was over 512 µM.
For `CCCCCCCCCCCCCCCCCCCC(N)COCc1ccccc1` (configuration not stated), the MIC [1] was 32 µM (≈ 13.4 µg/mL), the CC50 at 48 h [2] was 23 µM and the Ratio [3] was 11. The CC50 at 48 h [4] was 126 µM, the MIC [5] was 256 µM (≈ 107 µg/mL) and the MIC (Staphylococcus aureus) was over 512 µM. The MIC (Klebsiella pneumoniae) was over 512 µM.
`CCCCCCCCCCCCCCCC(CO)NCCCCCC` (configuration not stated) showed an MIC [1] of 64 µM (≈ 22.8 µg/mL), a CC50 at 48 h [2] of 23.8 µM and a Ratio [3] of 6. The CC50 at 48 h [4] was 113 µM, the MIC [5] was 256 µM (≈ 91 µg/mL) and the MIC (Staphylococcus aureus) was 128 µM (≈ 45.5 µg/mL). The MIC (Klebsiella pneumoniae) was over 512 µM.
In the case of `CCCCCCCCCCCCCCCC(N)CN` (configuration not stated), the MIC [1] is reported as over 64 µM, the CC50 at 48 h [2] is reported as 217 µM and the Ratio [3] is reported as under 5.6. It also gave a CC50 at 48 h [4] of 192 µM, an MIC [5] of 512 µM (≈ 138 µg/mL) and an MIC (Staphylococcus aureus) of over 512 µM. It also gave an MIC (Klebsiella pneumoniae) of over 512 µM.
`CCCCCCCCCCCCCCCC(CO)N(CC)CC` (configuration not stated) gave an MIC [1] of 4 µM (≈ 1.31 µg/mL), a CC50 at 48 h [2] of 23.3 µM and a Ratio [3] of 90. For the same compound, the CC50 at 48 h [4] was 25.1 µM.
Compound `CCCCCCCCCCCCCCCC(CNCC(=O)OCC)NC(=O)OC(C)(C)C` (configuration not stated) has an MIC [1] of 32 µM (≈ 14.6 µg/mL), a CC50 at 48 h [2] of 27.9 µM and a Ratio [3] of 11. The CC50 at 48 h [4] was 39 µM.
In the case of `Cc1onc(-c2ccccc2)c1C(=O)N[C@@H]1C(=O)N2[C@@H]1SC(C)(C)[C@@H]2C(=O)O` [OXACILLIN], the MIC (Staphylococcus aureus) is reported as 0.25 µM (≈ 0.1 µg/mL).
In the case of `CCCCCCCCCCCC(CO)NCCCC` (configuration not stated), the MIC [1] is reported as 32 µM (≈ 8.69 µg/mL), the CC50 at 48 h [2] is reported as 21.4 µM and the Ratio [3] is reported as 11. The CC50 at 48 h [4] was 26 µM.
